In patent publication US20020115661A1, “Method for treating chronic obstructive pulmonary disease” (priority 2000, published 2002):

Columns and labels:
human ETB receptors = target: T1, human ETB receptors (Homo sapiens, UniProt P24530); assay: [125I]ET-3 binding to recombinant human ETB receptors (CHO cell membranes); conditions: Table 1 comparison with known endothelin antagonists; read-out: Receptor Inhibition, Human ETB
T1 construct: expressed in transfected cells; host or cells: CHO cells
T1 sequence (P24530 27-442): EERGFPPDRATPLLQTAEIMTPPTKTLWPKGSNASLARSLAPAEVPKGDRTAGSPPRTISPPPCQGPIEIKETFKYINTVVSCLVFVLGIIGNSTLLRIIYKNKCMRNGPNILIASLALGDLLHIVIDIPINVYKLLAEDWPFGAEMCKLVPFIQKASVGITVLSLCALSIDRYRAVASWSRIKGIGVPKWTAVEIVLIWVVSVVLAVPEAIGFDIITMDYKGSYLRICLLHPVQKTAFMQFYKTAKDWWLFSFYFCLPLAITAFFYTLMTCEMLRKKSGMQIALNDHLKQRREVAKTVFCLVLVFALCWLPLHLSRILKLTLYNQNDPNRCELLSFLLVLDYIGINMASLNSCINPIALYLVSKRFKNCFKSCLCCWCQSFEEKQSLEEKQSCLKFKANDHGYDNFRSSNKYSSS

human ETA receptors = target: T2, human ETA receptors (Homo sapiens, UniProt P25101); assay: [125I]ET-1 binding to recombinant human ETA receptors (Ltk- cell membranes); conditions: for IC50: Table 1 comparison with known endothelin antagonists, read-out: Receptor Inhibition, Human ETA; for ETB/ETA selectivity ratio: human ETB / human ETA receptor inhibition
T2 construct: expressed in transfected cells; host or cells: Ltk- cells (mouse fibroblast, thymidine kinase deficient)
T2 sequence (P25101 21-427): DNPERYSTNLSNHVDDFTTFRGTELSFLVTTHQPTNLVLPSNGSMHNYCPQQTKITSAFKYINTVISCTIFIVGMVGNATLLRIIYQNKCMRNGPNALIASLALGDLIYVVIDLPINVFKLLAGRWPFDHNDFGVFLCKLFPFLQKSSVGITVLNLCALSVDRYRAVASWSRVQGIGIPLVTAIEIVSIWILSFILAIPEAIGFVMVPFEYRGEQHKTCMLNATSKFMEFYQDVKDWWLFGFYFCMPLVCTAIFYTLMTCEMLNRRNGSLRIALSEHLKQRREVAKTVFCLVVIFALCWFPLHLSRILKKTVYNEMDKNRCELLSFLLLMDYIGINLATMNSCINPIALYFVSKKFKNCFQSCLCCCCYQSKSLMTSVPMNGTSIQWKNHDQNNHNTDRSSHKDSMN

clinical = conditions: human, plasma, oral, 2 mg

Compound	IC50 (human ETB receptors)	IC50 (human ETA receptors)	ETB/ETA selectivity ratio (human ETA receptors)	AUC(0-t) (clinical)	Cmax (clinical)
COc1cc(OC)nc(O[C@H](C(=O)O)C(OC)(c2ccccc2)c2ccccc2)n1 [Darusentan]	0.184 µM	0.0014 µM	131		
CCCOc1ccc2c(c1)[C@@H](c1ccc(OC)cc1OCCO)[C@H](C(=O)O)[C@H]2c1ccc2c(c1)OCO2 [Enrasentan]	0.111 µM	0.0001 µM	1110		
Cc1ncc2n1-c1ccc(Cl)cc1C(c1ccccc1F)=NC2 [midazolam]				15.2 ng·h/mL	7.65 ng/mL
